Laboratory results: the supplement of paper PMC9103864

How the values were obtained:
[1] = system: BMSC (primary human bone marrow mesenchymal stromal cells); assay: absolute EC50 for viability; higher = less sensitive
[2] = system: BMSC (primary human bone marrow mesenchymal stromal cells); assay: drug sensitivity score (DSS); higher = more sensitive

| SMILES | absolute EC50 for viability [1] [nM] | drug sensitivity score [2] |
| --- | --- | --- |
| CC(C)(C)C[C@@H]1N[C@@H](C(=O)N[C@H]2CC[C@H](O)CC2)[C@H](c2cccc(Cl)c2F)[C@]12C(=O)Nc1cc(Cl)ccc12 | 2490 | 10.5 |
| C[C@@H](Oc1cc(-n2cnc3ccc(CN4CCN(C)CC4)cc32)sc1C(N)=O)c1ccccc1C(F)(F)F | 1890 | 8 |
| Cc1nc(Nc2n[nH]c3c2CN(C(=O)N[C@H](CN(C)C)c2ccccc2)C3(C)C)c2sccc2n1 | 2860 | 7.4 |
| COc1ccc(C[C@H](NC(=O)[C@H](C)NC(=O)CN2CCOCC2)C(=O)N[C@@H](Cc2ccccc2)C(=O)C2(C)CO2)cc1 (stereo in doubt) [ONX-0914] | 391 | 16.1 |
| Cn1cc(C[C@@H](N)C(=O)O)c2ccccc21 [1-methyl-D-tryptophan] | > 5000 | 0 |
| CC/C(=C(\c1ccc(O)cc1)c1ccc(OCCN(C)C)cc1)c1ccccc1 [4-hydroxytamoxifen] | 9930 | 0 |
| Nc1ncnc2c1nc(N)n2[C@@H]1O[C@H](CO)[C@@H](O)[C@H]1O [8-amino-adenosine] | 803 | 21.5 |
| Nc1ncnc2c1nc(Cl)n2[C@@H]1O[C@H](CO)[C@@H](O)[C@H]1O [8-chloro-adenosine] | 5350 | 10.9 |
| COc1cc2c(cc1OCCCN1CCCC1)N=C(N)C21CCC1 [A-366] | > 25000 | 2.8 |
| COc1ccc(S(=O)(=O)Nc2cccnc2Nc2ccc(O)cc2)cc1 [ABT-751] | > 10000 | 5.5 |
| C[C@H](Nc1ncnc2[nH]cnc12)c1cc2ccc(F)cc2nc1-c1ccccn1 [AMG319] | > 1000 | 0.1 |
| CC(C)[C@@H](CS(=O)(=O)C(C)C)N1C(=O)[C@@](C)(CC(=O)O)C[C@H](c2cccc(Cl)c2)[C@H]1c1ccc(Cl)cc1 [AMG-232] | 186 | 18.7 |
| COCCOc1cnc2ccn([C@H](C)c3nnc4c(F)cc(-c5cnn(C)c5)cn34)c(=O)c2c1 [AMG-337] | 9930 | 0 |
| CC1CCC(n2c3cnccc3c3cnc(Nc4ccc5c(n4)CCN(C(=O)CO)C5)nc32)CC1 (stereo not drawn) [AMG-925] | > 1000 | 0 |
| COCC1(CO)C(=O)C2CCN1CC2 (stereo not drawn) [APR-246] | > 10000 | 0 |
| CC(C)[C@H](C(=O)Nc1ccc(C(=O)NO)cc1)c1ccccc1 [AR-42] | 1940 | 7.5 |
| Cc1sc2c(c1C)C(c1ccc(Cl)cc1)=N[C@@H](CC(=O)Nc1ccc(OCCOCCOCCOCCNc3cccc4c3C(=O)N(C3CCC(=O)NC3=O)C4=O)cc1)c1nnc(C)n1-2 (stereo partly drawn) [ARV-825] | 36 | 10.1 |
| COc1cc(N2CCC(N3CCN(C)CC3)CC2)ccc1Nc1ncnc(Nc2ccccc2S(=O)(=O)C(C)C)n1 [ASP3026] | 2290 | 6.5 |
| O=C(NC1CCNCC1)c1n[nH]cc1NC(=O)c1c(Cl)cccc1Cl [AT7519] | 462 | 12.2 |
| O=C(Nc1c[nH]nc1-c1nc2ccc(CN3CCOCC3)cc2[nH]1)NC1CC1 [AT9283] | 254 | 6 |

| SMILES | absolute EC50 for viability [1] [nM] | drug sensitivity score [2] |
| --- | --- | --- |
| Cc1cc2c(C(C)C)c(O)c(O)c(C=O)c2c(O)c1-c1c(C)cc2c(C(C)C)c(O)c(O)c(C=O)c2c1O [AT 101] | 28100 | 6.1 |
| CN[C@@H](C)C(=O)N[C@H]1CN(C(=O)CC(C)C)CC[C@H]2CC[C@@H](C(=O)NC(c3ccccc3)c3ccccc3)N2C1=O [AT-406] | > 10000 | 0 |
| CC[C@H](CC#N)OC(=O)N[C@@H](C)c1cccc(NC(=O)Nc2ccc(-c3cnco3)c(OC)c2)c1 [AVN944] | > 10000 | 3.9 |
| COc1cc(N2CCN(C)CC2)ccc1Nc1nccc(-c2cn(C)c3cnccc23)n1 [AZ191] | 2710 | 8.1 |
| COc1cc(OC2CCN(C)CC2)ccc1Nc1ncc2c(n1)n(C1CCCC1)c(=O)n2C [AZ 3146] | > 10000 | 2.9 |
| CN(C)CCCOc1ccc(-c2ccc3ncc4c(c3c2)n(C2CCOCC2)c(=O)n4C)cn1 [AZD0156] | > 1000 | 1.9 |
| N[C@@H]1CCCN(c2c(/C=C3\SC(=O)NC3=O)cccc2-c2ccccc2)C1 [AZD1208] | > 10000 | 0.5 |
| Cc1cc(Nc2nc(N[C@@H](C)c3ncc(F)cn3)ncc2Cl)[nH]n1 [AZD1480] | > 1000 | 0.6 |
| C=CCn1c(=O)c2cnc(Nc3ccc(N4CCN(C)CC4)cc3)nc2n1-c1cccc(C(C)(C)O)n1 [AZD1775] | > 10000 | 4.8 |
| COc1cc2ncnc(Nc3cccc(Cl)c3F)c2cc1OC(=O)N1CCN(C)C[C@H]1C [AZD3759] | > 1000 | 0 |
| Cc1[nH]nc(C(F)(F)F)c1Cc1sc2c(c1C(=O)N1C[C@](C)(O)CO1)c(=O)n(C)c(=O)n2C(C)C [AZD3965] | > 1000 | 0 |
| COc1cc(CCc2cc(NC(=O)c3ccc(N4CC(C)NC(C)C4)cc3)n[nH]2)cc(OC)c1 (stereo not drawn) [AZD4547] | > 1000 | 1 |
| C[C@@H]1COCCN1c1cc(C2([S@](C)(=N)=O)CC2)nc(-c2cc[nH]c3nccc2-3)n1 [AZD6738] | > 25000 | 4.6 |
| CN(C)C(=O)c1ccc(S(=O)(=O)c2ccc(NC(=O)C(C)(O)C(F)(F)F)c(Cl)c2)cc1 (stereo not drawn) [AZD7545] | > 10000 | 0 |
| NC(=O)Nc1cc(-c2cccc(F)c2)sc1C(=O)N[C@H]1CCCNC1 [AZD7762] | > 1000 | 7.2 |
| COc1ccc(-c2ccc3c(N4CCOC[C@@H]4C)nc(N4CCOC[C@@H]4C)nc3n2)cc1CO [AZD8055] | 207 | 17.8 |
| N#Cc1ccc2[nH]c(O)c(-c3ccc(CN4CCOCC4)cn3)c2c1 [AZD-1080] | > 10000 | 0 |
| Cc1ncc(-c2ccnc(Nc3ccc(S(C)(=O)=O)cc3)n2)n1C(C)C [AZD-5438] | > 10000 | 1.5 |
| Cc1cc([C@@H](C)Nc2ccccc2C(=O)O)c2nc(N3CCOCC3)cc(=O)n2c1 [AZD-6482] | > 2500 | 2.1 |
| C[C@@H](Nc1cc(F)cc(F)c1)c1cc(C(=O)N(C)C)cc2c(=O)cc(N3CCOCC3)oc12 [AZD-8186] | > 1000 | 3.9 |

| SMILES | absolute EC50 for viability [1] [nM] | drug sensitivity score [2] |
| --- | --- | --- |
| CCN1CCN(Cc2ccc(Nc3ncc(F)c(-c4cc(F)c5nc(C)n(C(C)C)c5c4)n3)nc2)CC1 [Abemaciclib] | > 2500 | 0 |
| CN(C)Cc1c(C(=O)NCCOc2ccc(C(=O)NO)cc2)oc2ccccc12 [Abexinostat] | 1280 | 10.1 |
| C[C@]12CC[C@H](O)CC1=CC[C@@H]1[C@@H]2CC[C@]2(C)C(c3cccnc3)=CC[C@@H]12 [Abiraterone] | > 5000 | 0 |
| CC#CC(=O)N1CCC[C@H]1c1nc(-c2ccc(C(=O)Nc3ccccn3)cc2)c2c(N)nccn12 [Acalabrutinib] | > 1000 | 0 |
| COc1cc(C)c(/C=C/C(C)=C/C=C/C(C)=C/C(=O)O)c(C)c1C [Acitretin] | > 10000 | 0 |
| CN(C)C/C=C/C(=O)Nc1cc2c(Nc3ccc(F)c(Cl)c3)ncnc2cc1O[C@H]1CCOC1 [Afatinib] | > 1000 | 2.9 |
| COc1cccc2c1C(=O)c1c(O)c3c(c(O)c1C2=O)C[C@@](O)(/C(CO)=N/NC(=O)CCCCCN1C(=O)C=CC1=O)C[C@@H]3O[C@H]1C[C@H](N)[C@H](O)[C@H](C)O1 [Aldoxorubicin] | 944 | 7.3 |
| CCc1cc2c(cc1N1CCC(N3CCOCC3)CC1)C(C)(C)c1[nH]c3cc(C#N)ccc3c1C2=O [Alectinib] | > 1000 | 0 |
| COc1cc(Nc2ncc3c(n2)-c2ccc(Cl)cc2C(c2c(F)cccc2OC)=NC3)ccc1C(=O)O [Alisertib] | > 10000 | 0 |
| Oc1ncnc2[nH]ncc12 [Allopurinol] | > 10000 | 0 |
| Cc1nc(NC(=O)N2CCC[C@H]2C(N)=O)sc1-c1ccnc(C(C)(C)C(F)(F)F)c1 [Alpelisib] | > 2500 | 3.4 |
| O=C(Nc1cc(Oc2cc(F)c(NC(=O)C3(C(=O)Nc4ccc(F)cc4)CC3)cc2F)ccn1)C1CC1 [Altiratinib] | > 10000 | 2.9 |
| CN1CC[C@H](c2c(O)cc(O)c3c(=O)cc(-c4ccccc4Cl)oc23)[C@H](O)C1 [Alvocidib] | 739 | 10.8 |
| CCN(CC)CCNC(=O)c1c(C)[nH]c(/C=C2\C(=O)Nc3ccc(-c4csc(-c5ccccc5)n4)cc32)c1C [Amcasertib] | 2780 | 5.9 |
| CCC1(c2ccc(N)cc2)CCC(=O)NC1=O (stereo not drawn) [Aminoglutethimide] | > 10000 | 0 |
| COc1cc(NS(C)(=O)=O)ccc1Nc1c2ccccc2nc2ccccc12 [Amsacrine] | > 10000 | 2.8 |
| S=C(NCc1ccc2c(c1)OCO2)N1CCN(c2ncnc3c2oc2ccccc23)CC1 [Amuvatinib] | > 10000 | 0 |
| O=C1CN2Cc3c(ccc(Cl)c3Cl)N=C2N1 [Anagrelide] | > 10000 | 0 |
| CC(C)(C#N)c1cc(Cn2cncn2)cc(C(C)(C)C#N)c1 [Anastrozole] | > 10000 | 0 |
